Values joined by “and” are separate entries in the source; they are usually repeats but may differ in a detail not shown here. Equal entries are not always repeated.
Columns and labels:
[1] = system: cAMP; test: Measurement of cAMP in washed platelets (ELISA); type: cell-based, rat; details: single replicates
Protocol: Washed platelets were preincubated with vehicle or various concentrations of naringenin in the presence of 2 mM CaCl2 at 37°C for 5 min and then stimulated with ADP (10 μM) for 5 min for platelet aggregation. The reaction was terminated by adding EDTA (10 mM). The platelets were boiled for 5 min at 100 °C followed by centrifugation at 13,000 × g for 5 min cAMP and cGMP levels in the supernatant were measured using cAMP or cGMP enzyme immunoassay kits (Cayman Chemicals, Ann Arbor, MI, United States).
FIGURE 6 Naringenin elevates platelet cGMP levels and inhibits phosphodiesterase activity. The levels of cAMP (A) and cGMP (B) in washed platelets preincubated with vehicle or naringenin (100, 200, 400, and 800 μmol/L) were determined after stimulation with ADP (10 μmol/L) using ELISA kits. Similarly, the levels of cAMP (C) and cGMP (D) were determined in resting platelets incubated with naringenin (200, 400, and 800 μmol/L) or vehicle for 5 min. R represents the levels of cAMP or cGMP in resting platelets. Data are expressed as means ± SD (n = 4). *p < 0.05, ***p < 0.001 compared with the vehicle control group. The effects of naringenin on phosphodiesterase activity were measured by HPLC on the hydrolysis of cAMP (E) and cGMP (F). The level of phosphodiesterase activity obtained with vehicle control (0 μM) was taken as 100%. Data are expressed as means ± SD (n = 3). *p < 0.05, ***p < 0.001 compared with the vehicle control group.

[2] = system: washed rat platelets; test: Thrombin (0.2 U/mL)-induced aggregation of washed platelets; type: cell-based; details: for Aggregation (%) / Aggregation % of control: washed platelets, single replicates; for Aggregation (%): raw data
Protocol: Washed rat platelets were prepared as described previously ([Gao et al., 2011]) with a minor modification. Briefly, rat blood was drawn from the abdominal aorta into the siliconized vacutainers containing 1:9 (v/v) 3.8% sodium citrate, supplemented with 100 ng/ml prostaglandin E1 (PGE1) and centrifuged at 300 × g for 6 min at room temperature. Platelet-rich plasma (PRP) was obtained, and after the addition of 100 ng/ml PGE1, platelets were pelleted at 900 × g for 10 min. Platelets were washed once in Tyrode’s buffer (12 mM NaHCO3, 138 mM NaCl, 5.5 mM glucose, 2.9 mM KCl, 2 mM MgCl2, 0.42 mM NaH2PO4, 10 mM HEPES, pH 7.4) containing 100 ng/ml PGE1, and finally resuspended in Tyrode’s buffer containing 0.02 U/mL apyrase to a final concentration of 4×10^8 cells/mL. Washed platelets were preincubated with vehicle (0.4% dimethyl sulfoxide) or various concentrations of naringenin in the presence of 2 mM CaCl2 for 5 min at 37°C, and then further stimulated by ADP (10 μM), thrombin (0.2 U/mL) or collagen (2 μg/ml). The maximum platelet aggregation rate was detected within 5 min with continuous stirring.
(§1) FIGURE 1 Effects of naringenin and naringin on platelet aggregation. Chemical structure of naringin (A) and naringenin (B). The effects of naringin (C) or naringenin (D) on PRP were measured following stimulation with 10 μmol/L ADP. Rat washed platelet aggregation performed with or without different concentrations of naringin (E) or naringenin (F) was recorded after stimulation with 10 μmol/L ADP. Similarly, Washed platelet aggregation performed with vehicle or various concentrations of naringenin was recorded after stimulation with 0.2 U/mL thrombin (G) or 2 μg/ml collagen (H). WP represents washed platelets. Data are expressed as means ± SD (n = 6), the level of aggregation obtained at 5 min with vehicle-treated samples (0 μM) was taken as 100%. *p < 0.05, **p < 0.01, ***p < 0.001 compared with the vehicle control group.

[3] = system: washed rat platelets; test: ADP (10 μM)-induced aggregation of washed rat platelets; type: cell-based; details: for ADP-induced platelet aggregation (control group taken as 100%): mean ± SD, n = 6
Protocol: Platelet-rich plasma (PRP) was obtained, and after the addition of 100 ng/ml PGE1, platelets were pelleted at 900 × g for 10 min. […] Washed platelets were preincubated with vehicle (0.4% dimethyl sulfoxide) or various concentrations of naringenin in the presence of 2 mM CaCl2 for 5 min at 37°C, and then further stimulated by ADP (10 μM), thrombin (0.2 U/mL) or collagen (2 μg/ml). The maximum platelet aggregation rate was detected within 5 min with continuous stirring.
Platelet aggregation was induced by ADP using washed platelets and PRP. Washed platelets were preincubated with vehicle (containing 0.4% DMSO) or different doses (100, 200, 400, and 800 μM) of naringenin or naringin for 5 min before activation with ADP (10 μM) for 5 min.
as §1

[4] = system: washed rat platelets; test: ADP (5 μM)-stimulated aggregation of washed platelets (Figure S1); type: cell-based; details: 200, 400 and 800 μM similar efficacy
Description: Platelet aggregation was induced by ADP using washed platelets and PRP. […]
(1 picture or pasted object on this page, not shown here)

`O=C1C[C@@H](c2ccc(O)cc2)Oc2cc(O)cc(O)c21` [Naringenin] was tested, and the “cAMP release” value ([1]; ADP 10 μmol/L-stimulated platelets, 100 μM) was 21.36 pmol/mL and 22.41 pmol/mL and 21.09 pmol/mL and 22.01 pmol/mL, the “cAMP release” value ([1]; ADP 10 μmol/L-stimulated platelets, 200 μM) was 21.75 pmol/mL and 22.14 pmol/mL and 22.01 pmol/mL and 23.59 pmol/mL and the “cAMP release” value ([1]; ADP 10 μmol/L-stimulated platelets, 400 μM) was 27.54 pmol/mL and 26.36 pmol/mL and 22.01 pmol/mL and 20.04 pmol/mL. The “cAMP release” value ([1]; ADP 10 μmol/L-stimulated platelets, 800 μM) was 22.54 pmol/mL and 21.62 pmol/mL and 23.20 pmol/mL and 26.75 pmol/mL, the “cAMP release” value ([1]; resting platelets, 200 μM, 5 min) was 19.51 pmol/mL and 23.07 pmol/mL and 21.88 pmol/mL and 25.17 pmol/mL and the “cAMP release” value ([1]; resting platelets, 400 μM, 5 min) was 23.59 pmol/mL and 22.67 pmol/mL and 21.88 pmol/mL and 20.96 pmol/mL. The “cAMP release” value ([1]; resting platelets, 800 μM, 5 min) was 19.64 pmol/mL and 23.59 pmol/mL and 22.67 pmol/mL and 22.14 pmol/mL, the IC50 [2] was about 684 µM and the IC50 ([2]; Rattus norvegicus, Platelet) was 684 ± 80.8 µM. The “Aggregation (%)” value ([2]; 100 μM) was 77.1% and 76.2% and 52.9% and 66.7% and 72.2% and 88.4%, the “Aggregation % of control” value ([2]; 100 μM) was 95.0 % of control and 93.9 % of control and 65.2 % of control and 82.2 % of control and 88.9 % of control and 108.9 % of control and the “Aggregation (%)” value ([2]; 200 μM) was 79.6% and 67.1% and 56.9% and 52.0% and 48.0% and 62.4%. For the same compound, the “Aggregation % of control” value ([2]; 200 μM) was 98.1 % of control and 82.7 % of control and 70.1 % of control and 64.1 % of control and 59.1 % of control and 76.9 % of control, the “Aggregation (%)” value ([2]; 400 μM) was 77.0% and 53.3% and 68.0% and 42.9% and 66.7% and 43.5% and the “Aggregation % of control” value ([2]; 400 μM) was 94.9 % of control and 65.7 % of control and 83.8 % of control and 52.9 % of control and 82.2 % of control and 53.6 % of control. For the same compound, the “Aggregation (%)” value ([2]; 800 μM) was 45.5% and 30.8% and 28.0% and 42.4% and 22.5% and 36.0%, the “Aggregation % of control” value ([2]; 800 μM) was 56.1 % of control and 37.9 % of control and 34.5 % of control and 52.2 % of control and 27.7 % of control and 44.4 % of control and the IC50 ([3]; ADP 10 μM) was about 118 µM. For the same compound, the “reduction of aggregation of washed platelets” value ([3]; ADP-induced, 100 μM) was 45%, the “Aggregation (%)” value ([3]; Figure 5A: washed platelets, ADP 10 μM, naringenin 200 μM alone, single replicates) was 38.3% and 37.5% and 34.7% and 44.0% and 29.6% and 42.4% and the IC50 ([3]; Rattus norvegicus, Platelet, ADP 10 μM) was 118 ± 10.4 µM. For the same compound, the activity at 100 µM ([3]; Rattus norvegicus, Platelet, washed platelets, ADP 10 μmol/L, compound 100 μM, single replicates, read-out: Aggregation % of control) was 50.4%, the activity at 400 µM ([3]; Rattus norvegicus, Platelet, washed platelets, ADP 10 μmol/L, compound 400 μM, single replicates, read-out: Aggregation % of control) was 12% and the activity at 800 µM ([3]; Rattus norvegicus, Platelet, washed platelets, ADP 10 μmol/L, compound 800 μM, single replicates, read-out: Aggregation % of control) was 6.7%. The “level of inhibition relative to naringin” value ([3]; washed platelets, ADP 10 μM, 800 μM) was 11 fold, the “ADP-induced platelet aggregation (control group taken as 100%)” value ([3]; washed platelets, ADP 10 μM, compound 100 μM) was 54.5 ± 6.2% and the “ADP-induced platelet aggregation (control group taken as 100%)” value ([3]; washed platelets, ADP 10 μM, compound 800 μM) was 6.3 ± 1.7%. The “Aggregation (%)” value ([3]; washed platelets, ADP 10 μmol/L, compound 100 μM, raw data, single replicates) was 35.6% and 34.2% and 43.2% and 37.5% and 36.0% and 44.7%, the “Aggregation % of control” value ([3]; washed platelets, ADP 10 μmol/L, compound 100 μM, single replicates, 100 µM) was 48.4 % of control and 61.1 % of control and 53.1 % of control and 51.0 % of control and 63.3 % of control and the “Aggregation (%)” value ([3]; washed platelets, ADP 10 μmol/L, compound 200 μM, raw data, single replicates) was 24.7% and 26.3% and 34.7% and 21.2% and 13.9% and 29.4%. The “Aggregation % of control” value ([3]; washed platelets, ADP 10 μmol/L, compound 200 μM, single replicates, 200 µM) was 35.0 % of control and 37.2 % of control and 49.1 % of control and 30.0 % of control and 19.7 % of control and 41.6 % of control, the “Aggregation (%)” value ([3]; washed platelets, ADP 10 μmol/L, compound 400 μM, raw data, single replicates) was 8.5% and 6.2% and 6.9% and 8.1% and 8.7% and 7.6% and the “Aggregation % of control” value ([3]; washed platelets, ADP 10 μmol/L, compound 400 μM, single replicates, 400 µM) was 8.8 % of control and 9.8 % of control and 11.5 % of control and 12.3 % of control and 10.8 % of control. The “Aggregation (%)” value ([3]; washed platelets, ADP 10 μmol/L, compound 800 μM, raw data, single replicates) was 4.7% and 3.7% and 5.6% and 6.1% and 3.6% and 3.1%, the “Aggregation % of control” value ([3]; washed platelets, ADP 10 μmol/L, compound 800 μM, single replicates, 800 µM) was 5.2 % of control and 7.9 % of control and 8.6 % of control and 5.1 % of control and 4.4 % of control and the “effect on ADP (5 μM)-stimulated platelet aggregation” value [4] was “significant levels of inhibition”.
